Reference: paper PMC5084761, “Crisaborole Topical Ointment, 2% in Patients Ages 2 to 17 Years with Atopic Dermatitis: A Phase 1b, Open‐Label, Maximal‐Use Systemic Exposure Study” (Pediatric Dermatology, 2016)
Read-outs that look alike come from different tables or passages of the source.

Columns and labels:
[1] = in vivo
Source text: (§1) This was a phase 1b, multicenter, open‐label, maximal‐use study of crisaborole topical ointment, 2% applied twice daily (BID). The study included a PK and safety phase (dose application in clinic from day 1 through the morning dose on day 9) and a non‐PK safety phase (at‐home dose application from the evening dose on day 9 through day 28). […] The primary objective was to evaluate the systemic exposure, PK, and safety of crisaborole topical ointment, 2% when applied under maximal‐use conditions in children and adolescents 2 to 17 years of age.
(§2) Crisaborole topical ointment, 2% was applied BID to all treatable AD‐affected areas at an intended dose of 3 mg/cm^2. The per‐application dosage was calculated in grams at baseline for each patient based on total body surface area (BSA) and treatable percentage of BSA (percentage of AD‐involved skin excluding scalp and venous access areas). During the PK phase, the per‐application dosage remained fixed at the baseline level and was applied BID, with the evening application occurring 8 to 12 hours after the morning application.
(§3) The primary study endpoints were PK and safety of crisaborole topical ointment, 2% under maximal‐use conditions. PK profiles were developed for crisaborole and its major oxidative metabolites AN7602 and AN8323 based on plasma samples obtained on days 1 and 8. Calculated PK parameters included area under the curve (AUC), maximum plasma concentration (C max), time to C max (T max), and terminal half‐life (t 1/2), assessed on days 1 and 8.
(§4) Plasma PK samples were evaluated for crisaborole, AN7602, and AN8323 using a validated high‐performance liquid chromatography tandem mass spectrometry assay and analyzed using analysis of variance (ANOVA). Descriptive PK parameters were determined using standard noncompartmental methods based on concentration‐versus‐time curves for each patient.
(§5) If no statistically significant differences were observed using this model, the PK analysis was performed for all study patients.

[2] = system: children and adolescents with mild to moderate AD; assay: Efficacy: ISGA, treatment success, AD signs and symptoms, treatable percentage of BSA; assay type: in vivo, human (patients ages 2 to 17 years); settings: for Percentage change from baseline in treatable percentage of BSA, mean ± SD: after 4 wks
Method: Secondary assessments included treatment success, defined as an Investigator Static Global Assessment (ISGA) score of 1 or less (clear or almost clear) with a two‐grade improvement or more from baseline. The proportion of patients achieving an ISGA of 0 (clear) or 1 (almost clear) was also assessed. Improvement from baseline in AD signs and symptoms of erythema, excoriation, exudation, lichenification, and pruritus was evaluated using a 4‐point scale ranging from 0 (none) to 3 (severe). Efficacy assessments were conducted at baseline and days 5, 8, 15, 22, and 29. Change from baseline in treatable percentage of BSA was assessed at day 29 and included all AD lesions identified at baseline.

[3] = Plasma pharmacokinetics after topical application of crisaborole topical ointment, 2% BID under maximal-use conditions (HPLC tandem mass spectrometry, noncompartmental); settings: for Cmax: 3 mg/cm^2, C max
Source text: as §1, §2, §3, §4, §5

## N#Cc1ccc(Oc2ccc(O)c(CO)c2)cc1 [AN7602]
[1]
  systemic exposure (in words): minimal

## N#Cc1ccc(Oc2ccc3c(c2)COB3O)cc1 [Crisaborole, crisaborole]
[2]; cohort 1
  Percentage change from baseline in treatable percentage of BSA, mean ± SD: −86.6 ± 18.6 percentage
[2]; cohort 2
  Percentage change from baseline in treatable percentage of BSA, mean ± SD: −72.8 ± 24.4 percentage
[2]; cohort 3
  Percentage change from baseline in treatable percentage of BSA, mean ± SD: −73.0 ± 21.7 percentage
[2]; total (N = 34)
  Percentage change from baseline in treatable percentage of BSA, mean ± SD: −77.7 ± 22.1 percentage
[2]; cohort 1, ages 12–17 yrs (n = 12), baseline 35.8 ± 11.3
  Day 29 treatable percentage of BSA, mean ± SD (range): 5.7 ± 8.6 (0–29) percentage of BSA
[2]; cohort 2, ages 6–11 yrs (n = 12), baseline 54.9 ± 19.3
  Day 29 treatable percentage of BSA, mean ± SD (range): 16.3 ± 14.5 (0–40) percentage of BSA
[2]; cohort 3, ages 2–5 yrs (n = 10), baseline 56.9 ± 23.0
  Day 29 treatable percentage of BSA, mean ± SD (range): 18.6 ± 18.1 (0–46) percentage of BSA
[2]; overall, as summarised in discussion
  reduction of the mean percentage of skin with AD lesions: ~ 75%
[2]; total (N = 34), baseline 48.7 ± 20.2
  Day 29 treatable percentage of BSA, mean ± SD (range): 13.2 ± 14.7 (0–46) percentage of BSA
[3]; human, plasma, topical, 3 mg/cm^2
  Tmax: 3 h
[3]; human, plasma, topical, 3 mg/cm^2, AUC0–12, mean ± SD, plasma, day 1, all patients (n = 32)
  AUC(0-t): 759 ± 730 ng·h/mL
[3]; human, plasma, topical, 3 mg/cm^2, AUC0–12, mean ± SD, plasma, day 8, all patients (n = 32)
  AUC(0-t): 949 ± 1240 ng·h/mL
[3]; human, plasma, topical, 3 mg/cm^2, AUC0–24, mean ± SD, plasma, day 1, all patients (n = 29)
  AUC(0-t): 833 ± 694 ng·h/mL
[3]; human, plasma, topical, 3 mg/cm^2, AUC0–24, mean ± SD, plasma, day 8, all patients (n = 32)
  AUC(0-t): 1320 ± 1330 ng·h/mL
[3]; human, plasma, topical, 3 mg/cm^2, AUC0–T, mean ± SD, plasma, day 1, all patients (n = 34)
  AUC(0-t): 863 ± 759 ng·h/mL
[3]; human, plasma, topical, 3 mg/cm^2, AUC0–T, mean ± SD, plasma, day 8, all patients (n = 33)
  AUC(0-t): 1320 ± 1310 ng·h/mL
[3]; human, plasma, topical, mean ± SD, plasma, day 1, all patients (n = 34)
  Cmax: 111 ± 113 ng/mL
[3]; human, plasma, topical, mean ± SD, plasma, day 8, all patients (n = 33)
  Cmax: 127 ± 196 ng/mL
[3]; maximal-use conditions, increased with treatable percentage of BSA
  systemic exposure (in words): minimal
[3]; over 8 days of dosing
  systemic accumulation in plasma (in words): minimal systemic accumulation
[3]; plasma, BID dosing
  time by which steady state was reached: ≤ 8 days
[3]; plasma, day 1, all patients (n = 34), ointment 2% at 3 mg/cm^2
  T max, median (range): 3.00 (3–12) hours
